{"source": "patent US20100203104A1", "about": "“DELIVERY SYSTEM FOR RISPERIDONE” (N.V. Organon, priority 2006, published 2010)", "assay": "Solubility of risperidone in ethylene vinyl acetate copolymer", "type": "physicochemical", "details": "ethylene vinyl acetate copolymer having a vinyl acetate content of 28%", "description": "With risperidone is meant 3-[2-[4-(6-fluoro-1,2-benzisoxazol-3-yl)-1-piperidinyl]ethyl]-6,7,8,9-tetrahydro-2-methyl-4H-pyrido[1,2-a]pyrimidin-4-one. […] Solubility is measured as described in Laarhoven, J. A. H., et al. (2002), International Journal of Pharmaceutics 232, page 165.", "data": [{"smiles": "Cc1nc2n(c(=O)c1CCN1CCC(c3noc4cc(F)ccc34)CC1)CCCC2", "note": "[Risperidone, 3-[2-[4-(6-fluoro-1,2-benzisoxazol-3-yl)-1-piperidinyl]ethyl]-6,7,8,9-tetrahydro-2-methyl-4H-pyrido[1,2-a]pyrimidin-4-one]", "values": [{"measurement": "solubility in ethylene vinyl acetate copolymer", "value": 0.1, "unit": "wt %"}]}]}
